Assay results: ChEMBL document CHEMBL1122904, “Bioactive conformation of 1-arylpiperazines at central serotonin receptors” (J Med Chem, 1985)

Target: 5-hydroxytryptamine receptor 1B (Rattus norvegicus, UniProt P28564)
Experiment: Intrinsic affinity towards serotonin receptor from rat frontal cortex by displacement of [3H]5-HT
Type: tissue-based

Sequence of 5-hydroxytryptamine receptor 1B (P28564 whole entry): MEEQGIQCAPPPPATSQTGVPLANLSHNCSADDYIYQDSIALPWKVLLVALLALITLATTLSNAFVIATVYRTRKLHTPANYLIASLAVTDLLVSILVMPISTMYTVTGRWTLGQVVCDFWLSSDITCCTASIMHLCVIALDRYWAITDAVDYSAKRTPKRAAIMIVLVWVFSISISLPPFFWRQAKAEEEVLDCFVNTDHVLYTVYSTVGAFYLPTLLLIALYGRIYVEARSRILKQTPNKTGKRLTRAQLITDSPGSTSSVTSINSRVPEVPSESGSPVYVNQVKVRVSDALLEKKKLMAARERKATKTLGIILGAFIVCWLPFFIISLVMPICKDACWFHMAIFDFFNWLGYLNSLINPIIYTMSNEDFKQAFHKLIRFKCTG

Row | Structure (SMILES) | Ki [nM]
1 | FC(F)(F)c1cccc(N2CCNCC2)c1 | 116
2 | FC(F)(F)c1ccc2c(c1)N1CCNCC1CC2 (stereo not drawn) | 67
3 | Clc1cncc(N2CCNCC2)n1 [MK-212] | 3630
